Test [1] has as its target T1, rat recombinant neurolysin (Rattus norvegicus, UniProt P42676).
T1 construct: polyhistidine (N); made in house; host or cells: Escherichia coli (pBAD/His vector)
Kind of test: Enzymatic assay: QFS hydrolysis by rat recombinant neurolysin. Type of test: biochemical. The conditions noted are these: QFS 25 μM, compared to vehicle control; for % activity at 10: 10 μM compound; for % activity at (100): 100 μM compound. The procedure: Rat recombinant neurolysin—N-terminal polyhistidine tagged recombinant rat neurolysin was produced in Escherichia coli using a plasmid construct in pBAD/His vector system (Invitrogen) kindly provided by Dr. David W. Rodgers (University of Kentucky) (32,33). Bacterial culture was carried out in Terrific Broth in 2 L Erlenmeyer flasks using an incubator shaker (1-2400, New Brunswick Scientific). Expression was induced by addition of arabinose (1 mM final concentration), the cells were pelleted 3 h after induction and stored at −80° C. freezer. Bacterial pellets were resuspended and lysed in phosphate buffer (20 mM NaH2PO4, 500 mM NaCl, 0.05% Tween-20, pH 8.0) containing 0.25 mg/ml lysozyme, 1 mM phenylmethylsulfonyl fluoride, 0.05 mg/ml DNAse and 0.02 mg/ml RNase, followed by brief sonication. After centrifugation (40,000×g, 20 min at 4° C.) the supernatant was applied to a Ni-NTA Superflow cartridge (Qiagen), followed by washing and elution of recombinant neurolysin with phosphate buffer containing 25 and 250 mM imidazole, respectively. The eluted protein was further purified by size exclusion chromatography using a TSK gel BioAssist G2SWxl column (Tosoh bioscience) in AKTA Purifier FPLC system (GE Healthcare). […] Specific activity of recombinant neurolysin was determined by an enzymatic assay described below.
All assays were initiated by addition of QFS (100 μl assay volume in 96-well plates), and each experimental sample was present in duplicate.
In all experiments, test compounds were incubated with neurolysin for 10 min at 37° C. before addition of the substrate to start the reaction. All test compounds were dissolved in DMSO at 10 to 50 mM stock concentrations.
Statistical Analyses—statistical analyses and curve fitting were conducted with GraphPad Prism 6.0 software. For each enzymatic reaction, slope of the line which represents the initial velocity (Vo) for the reaction progress curve was calculated using the liner regression model of the software (Vo=Slope=Δ fluorescent intensity of the reaction product/Δ time). EC50 values for the modulators were calculated by fitting initial velocity values for hydrolysis of QFS by neurolysin in the presence of varying concentrations of a modulator into a nonlinear regression model for the three-parameter log(stimulator) vs. response equation [Y=Bottom+(Top−Bottom)/(1+10^((Log EC50−X)))].

Test [2] deals with T2, Neurolysin (Nln) (Rattus norvegicus, UniProt P42676).
T2 construct: polyhistidine (N); made in house; host or cells: Escherichia coli (pBAD/His vector), if the rat enzyme of b61 was used
Kind of test: Nln activation in isolated enzyme assay (A50, Amax). It counts as biochemical. The note with it: for EC50: read-out: A50 (concentration required to activate Nln by 50%).

The mark [3] stands for this setting: 100% = normal enzyme turnover, 95% CI in parentheses.

Several values for one entry are separate records, joined by “and”; a condition that tells them apart may be missing. Equal entries are not always repeated. Where two headings read alike, the source gives them in different places. Square brackets hold non-standard residues; d marks the D form. Peptide text beside a SMILES is read from it. Tyr(3-NO2) = N[CH](Cc1ccc(O)c([N+](=O)[O-])c1)C(=O)O

T2 sequence (P42676 38-704): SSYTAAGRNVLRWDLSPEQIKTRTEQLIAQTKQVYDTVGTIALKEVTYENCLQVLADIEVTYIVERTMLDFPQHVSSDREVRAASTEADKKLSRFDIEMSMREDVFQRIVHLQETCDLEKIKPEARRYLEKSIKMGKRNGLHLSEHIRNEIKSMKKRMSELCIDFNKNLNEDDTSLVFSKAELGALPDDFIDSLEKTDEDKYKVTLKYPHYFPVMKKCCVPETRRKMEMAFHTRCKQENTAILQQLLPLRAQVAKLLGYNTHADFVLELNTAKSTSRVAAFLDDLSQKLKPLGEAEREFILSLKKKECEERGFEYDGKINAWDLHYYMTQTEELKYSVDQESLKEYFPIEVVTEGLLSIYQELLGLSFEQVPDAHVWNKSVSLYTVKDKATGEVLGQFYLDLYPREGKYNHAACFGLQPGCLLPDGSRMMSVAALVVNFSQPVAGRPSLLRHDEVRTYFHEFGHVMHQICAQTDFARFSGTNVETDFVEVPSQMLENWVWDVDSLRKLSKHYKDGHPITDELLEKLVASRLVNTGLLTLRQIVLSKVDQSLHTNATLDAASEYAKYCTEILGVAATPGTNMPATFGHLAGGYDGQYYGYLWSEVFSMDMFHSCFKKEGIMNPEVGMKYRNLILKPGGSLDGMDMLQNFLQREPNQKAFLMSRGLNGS
T1 sequence (P42676 38-704): as above

With `NCCCNCCSP(=O)(O)O` [Compound 296961], in test [1], the “% activity at 10” value was 106% and the “% activity at (100)” value was 127%.

For the compound `Clc1cc(Cl)c(C[N+]23CN4CN(CN(C4)C2)C3)cc1Cl.[Cl-]` [Compound 155877], in test [1], the “% activity at 10” value is recorded as 82% and the “% activity at (100)” value turned out to be 4%.

Consider `CC(C)C(N)C(=O)NC(C(=O)NS(=O)(=O)c1ccc(N)cc1)C(C)C` (centres unmarked) [Compound 340049], for which, in test [1], the “% activity at 10” value is reported as 94% and the “% activity at (100)” value is on record as 52%.

As to `Cl.NC(=O)C(Cc1ccc(O)c([N+](=O)[O-])c1)NC(=O)C(N)Cc1ccccc1` (centres unmarked) [Compound 343028] (H-Phe-[Tyr(3-NO2)]-NH2; configuration not given here), in test [1], the “% activity at 10” value stood at 98% and the “% activity at (100)” value is on record as 73%.

In the case of `NCC(SSC(CN)C(=O)O)C(=O)O` (centres unmarked) [Compound 302851], in test [1], the “% activity at 10” value is 104% and the “% activity at (100)” value worked out at 80%.

`O=P1(NCC2CCCO2)OCC2(CO1)COP(=O)(NCC1CCCO1)OC2` (centres unmarked) [Compound 88659]: in test [1], the “% activity at 10” value is listed as 100% and the “% activity at (100)” value stood at 100%.

As for `O=C(O)CNC(=O)CNC(=O)c1ccc2ccccc2n1` [Compound 400844], in test [1], the “% activity at 10” value worked out at 104% and the “% activity at (100)” value turned out to be 84%.

For `COC1OC2COC(c3ccccc3)OC2C(N=Cc2ccccc2)C1O` (centres unmarked) [Compound 210826], in test [1], the “% activity at 10” value was 101% and the “% activity at (100)” value is on record as 105%.

For `CC(NCCN(C)C)C1CC2CCCCN2C1` (centres unmarked) [Compound 600947], in test [1], the “% activity at 10” value is on record as 107% and the “% activity at (100)” value came out at 105%.

In the case of `NC1=C(O)/C(=N/NS(=O)(=O)c2ccccc2)C(c2ccc3c(c2)OCO3)O1` (centres unmarked) [Compound 640354], in test [1], the “% activity at 10” value worked out at 79% and the “% activity at (100)” value is 76%.

Consider `CC(C)CC(NC(=O)C(C)N)C(=O)NCC(=O)O` (centres unmarked) [Compound 333568], for which, in test [1], the “% activity at 10” value was 106% and the “% activity at (100)” value was 77%.

For the compound `O=C1CSC(c2cccnc2)N1CCN1C(=O)CSC1c1cccnc1` (centres unmarked) [Compound 615399], in test [1], the “% activity at 10” value is listed as 108% and the “% activity at (100)” value is recorded as 108%.

On to `Cl.NC(=O)C(Cc1ccc(O)cc1)NC(=O)C(N)Cc1c[nH]c2ccccc12` (stereo not drawn) [Compound 339919] (H-Trp-Tyr-NH2; configuration not given here), for which, in test [1], the “% activity at 10” value turned out to be 100% and the “% activity at (100)” value worked out at 63%.

On to `Cc1cn(C(C=O)OC(C=O)CO)c(=O)[nH]c1=O` (centres unmarked) [Compound 266752], for which, in test [1], the “% activity at 10” value turned out to be 107% and the “% activity at (100)” value turned out to be 97%.

For the compound `CN(CCc1cnc2nc(N)[nH]c(=O)c2n1)c1ccc(C(=O)O)cc1` [Compound 121184], in test [1], the “% activity at 10” value worked out at 77% and the “% activity at (100)” value stood at 18%.

As to `NCC(=O)N1CCC[C@H]1C(=O)NCC(=O)NCC(=O)O` [Compound 89624] (H-GPGG-OH), in test [1], the “% activity at 10” value is 102% and the “% activity at (100)” value stood at 38%.

For `CC(C)CC(NC(=O)C(N)CC(=O)O)C(=O)O` (stereo not drawn) [Compound 332636] (H-Asp-Leu-OH; configuration not given here), in test [1], the “% activity at 10” value is given as 103% and the “% activity at (100)” value stood at 64%.

As for `CNCCc1cn(C2OC(CO)C(O)C(O)C2O)cn1` (centres unmarked) [Compound 131922], in test [1], the “% activity at 10” value was determined as 96% and the “% activity at (100)” value amounted to 28%.

Turning to `CSCCC(N)[P+](=O)O` (centres unmarked) [Compound 359097], in test [1], the “% activity at 10” value is 87% and the “% activity at (100)” value was determined as 92%.

As to `S=C(NCN1CCNCC1)C(=S)NCN1CCNCC1` [Compound 203396], in test [1], the “% activity at 10” value was determined as 102% and the “% activity at (100)” value turned out to be 106%.

On to `CCOCCOCCN1CNc2nc(N)[nH]c(=O)c2C1` [Compound 92597], for which, in test [1], the “% activity at 10” value worked out at 105% and the “% activity at (100)” value is 98%.

On to `N#CC(C#N)N=Nc1ccc(S(=O)(=O)N=C(N)N)cc1` [Compound 134119], for which, in test [1], the “% activity at 10” value is recorded as 83% and the “% activity at (100)” value is reported as 41%.

For `CC1CN(CCCN)C(C)CN1CCCN` (centres unmarked) [Compound 14541], in test [1], the “% activity at 10” value is given as 97% and the “% activity at (100)” value was determined as 103%.

In the case of `COc1ccccc1CNC(=O)[C@@H](N)Cc1c[nH]cn1` [Compound 5d], the “Amax (maximum % activation achieved)” value in test [2] is 385.8 (363.8 to 410.5) %.

Take `N[C@H](Cc1cnc[nH]1)C(=O)NCc1cccc(C(F)(F)F)c1` [AB-1-9-2]: in test [2], the “Amax (maximum % activation achieved)” value is reported as 184.4 (169.4 to 201.5) %.

As to `COc1ccc(CCNC(=O)[C@@H](N)Cc2c[nH]cn2)cc1` [AB-1-4-2], the “Amax (maximum % activation achieved)” value in test [2] (setting [3]) is on record as 544 (492.2 to 609.4) %.

With `N[C@@H](Cc1c[nH]cn1)C(=O)NCc1ccc(F)cc1` [Compound 5n, (S)-2-amino-N-(4-fluorobenzyl)-3-(1H-imidazol-4-yl)propanamide], in test [2], the “Amax (maximum % activation achieved)” value is 293 (276.5-310.7) %.

For the compound `COc1ccccc1CNC(=O)[C@H](N)Cc1c[nH]cn1` [SR16-1d], the “Amax (maximum % activation achieved)” value in test [2] was 324.9 (304 to 349) %.

For the compound `N[C@H](Cc1c[nH]cn1)C(=O)NCc1ccc(C(F)(F)F)cc1` [Compound 5i, (R)-2-amino-3-(1H-imidazol-4-yl)-N-(4-(trifluoromethyl)benzyl)propanamide], the “Amax (maximum % activation achieved)” value in test [2] is 319.1 (296.3 to 344.3) %.

Turning to `N[C@H](Cc1c[nH]cn1)C(=O)NCc1cccc(C(F)(F)F)c1` [Compound 5m], the “Amax (maximum % activation achieved)” value in test [2] was 282 (258.4 to 309.1) %.

Consider `N[C@H](Cc1c[nH]cn1)C(=O)NCCc1ccc(C(F)(F)F)cc1` (single isomer, unassigned) [AB-1-8-2], for which the “Amax (maximum % activation achieved)” value in test [2] is 643 (588.8 to 714) %.

On to `O=C(CCc1cnc[nH]1)NCCc1c[nH]c2ccccc12` [PT-1-177], for which the “A50 (concentration required to activate Nln by 50%)” value in test [2] (95% CI in parentheses) was “Inactive”. Further, the “Amax (maximum % activation achieved)” value in test [2] (setting [3]) is “Inactive”.

Take `N[C@H](Cc1c[nH]cn1)C(=O)NCc1ccc2ccccc2c1` [Compound 10b, (R)-2-amino-3-(1H-imidazol-4-yl)-N-(naphthalen-2-ylmethyl)propanamide]: the EC50 in test [2] (95% CI in parentheses) was 6.3 µM. For the same compound, in test [2] (setting [3]), the “Amax (maximum % activation achieved)” value is reported as 197.5 (184.9 to 214.8) %.

For the compound `N[C@H](Cc1c[nH]cn1)C(=O)NCCc1ccc2ccccc2c1` [SR19-2d], the “Amax (maximum % activation achieved)” value in test [2] is 339.8 (325.4 to 355.4) %.

As for `N[C@@H](Cc1c[nH]cn1)C(=O)NCc1ccc(OC(F)(F)F)cc1` [Compound 5p], the “Amax (maximum % activation achieved)” value in test [2] is recorded as 310 (287.2 to 336.1) %.

As to `N[C@@H](Cc1c[nH]cn1)C(=O)Nc1ccccc1` [Compound 6a, (S)-2-amino-3-(1H-imidazol-4-yl)-N-phenylpropanamide], in test [2] (95% CI in parentheses), the EC50 turned out to be 252 µM. The “Amax (maximum % activation achieved)” value in test [2] (setting [3]) is 467% and 466.6%.

For `O=C1NC(Cc2c[nH]cn2)C(=O)N2CCCC12` (centres unmarked) [Cyclo(His-Pro)], the “A50 (concentration required to activate Nln by 50%)” value in test [2] (95% CI in parentheses) is “Inactive”. For the same compound, the “Amax (maximum % activation achieved)” value in test [2] (setting [3]) is “Inactive”.

In the case of `COc1ccc(CCNC(=O)[C@H](N)Cc2c[nH]cn2)cc1` [Compound 4f, (R)-2-amino-3-(1H-imidazol-4-yl)-N-(4-methoxyphenethyl)propanamide], in test [2] (setting [3]), the “Amax (maximum % activation achieved)” value is on record as 378.3 (350.5 to 411.9) %.

With `N[C@@H](Cc1c[nH]cn1)C(=O)NCc1ccccc1C(F)(F)F` [DF-10-2], the “Amax (maximum % activation achieved)” value in test [2] is 334 (313.7 to 357.2) %.

On to `N[C@H](Cc1c[nH]cn1)C(=O)Nc1cccc2cccnc12` [Compound 11b, (R)-2-amino-3-(1H-imidazol-4-yl)-N-(quinolin-8-yl)propanamide], for which the “Amax (maximum % activation achieved)” value in test [2] (setting [3]) is 255.2 (239.9 to 278.9) %.

Take `CC(C)(C)OC(=O)N[C@@H](Cc1c[nH]cn1)C(=O)NCCc1c[nH]c2ccccc12`: in test [2] (95% CI in parentheses), the “A50 (concentration required to activate Nln by 50%)” value is recorded as “Inactive”. In addition, the “Amax (maximum % activation achieved)” value in test [2] (setting [3]) is “Inactive”.

For `N[C@@H](Cc1c[nH]cn1)C(=O)NCCc1ccc2ccccc2c1` [SR18-1], the “Amax (maximum % activation achieved)” value in test [2] is on record as 323.7 (310.3 to 337.9) %.

As for `N[C@H](Cc1c[nH]cn1)C(=O)NCc1cccc2ccccc12` [Compound 10d, (R)-2-amino-3-(1H-imidazol-4-yl)-N-(naphthalen-1-ylmethyl)propanamide], in test [2] (setting [3]), the “Amax (maximum % activation achieved)” value is 343 (325.2 to 363.5) %.
